Test results published in the supplement of paper PMC4862054.
“And” between values parts separate entries of the source, which are not always exact repeats. Equal entries are not always repeated.

Columns and labels:
Settings in all cases: incubation time: 72 h
SK-BR-3 = experiment: normalised viability (% of control), CellTiter-Blue; higher = more viable cells (about 100 = DMSO control)
In short: (§1)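 Plates were quality-checked by Z'-factor and normalised to vehicle (100) and a positive kill control (0). The underlying assay incubated breast cancer cell lines for 72 h on 384-well plates with compound, then added 2.5 µl CellTiter-Blue for 2 h at 37 °C and read at 560/590 nm. The value is normalised viability at a single listed concentration of the series.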

BT-549 = experiment: as above
In short: as §1

MDA-MB-231 [1] = experiment: as above
In short: as §1

CAL-120 = experiment: as above
In short: as §1

Hs578T = experiment: as above
In short: as §1

CAL-148 = experiment: as above
In short: as §1

MDA-MB-436 = experiment: as above
In short: as §1

HCC1143 [2] = experiment: as above
In short: as §1

HDQ-P1 [3] = experiment: as above
In short: as §1

CAL-51 = experiment: as above
In short: as §1

HCC1937 [4] = experiment: as above
In short: as §1

MFM-223 = experiment: as above
In short: as §1

DU-4475 = experiment: as above
In short: as §1

MDA-MB-453 = experiment: as above
In short: as §1

BT-474 [5] = experiment: as above
In short: as §1

CAL-85-1 = experiment: as above
In short: as §1

HCC1599 = experiment: as above
In short: as §1

MDA-MB-468 = experiment: as above
In short: as §1

MDA-MB-231 [6] = experiment: drug sensitivity score (DSS), CellTiter-Glo (DSS (AUC-based score)); higher = stronger drug effect (viability inhibition or cytotoxicity); extreme values may be limits of the assay
In short: (§2)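 Each compound occupied 5 concentrations in 10-fold steps over its own 10,000-fold range in 384-well plates, into which breast cancer cell lines were seeded as 20 µl suspension. Following 72 h of incubation, CellTox Green fluorescence (485/520 nm) was measured, and CellTiter-Glo luminescence was measured after 10 min at room temperature. Plates were individually normalised to 0.1 % DMSO and a positive kill control. From the area under the fitted dose-response curve, a drug sensitivity score was calculated.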

MCF-10A = experiment: as above
In short: as §2

HCC1143 [7] = experiment: as above
In short: as §2

HDQ-P1 [8] = experiment: as above
In short: as §2

HCC1937 [9] = experiment: as above
In short: as §2

BT-474 [10] = experiment: as above
In short: as §2

Cc1cc2c(F)c(Oc3ncnn4cc(OC[C@@H](C)O)c(C)c34)ccc2[nH]1 [Brivanib]
normalised viability [%]
Settings	0.3 nM	1 nM	3 nM	10 nM	100 nM	1000 nM
BT-474 [5]	–	112	–	–	117	94.5
BT-549	–	107	–	–	90.6	109
CAL-51	96.7	–	96.8	95.7	–	–
CAL-85-1	88.4	–	86.2	89.1	–	–
CAL-120	–	89.3	–	–	82.5	93.2
CAL-148	92.7	–	90.8	93.1	–	–
DU-4475	102	–	93.6	93.4	–	–
HCC1143 [2]	–	85.2	–	–	83.3	84.3
HCC1599	–	87.1	–	–	100	116
HCC1937 [4]	–	87.8	–	–	104	97.6
HDQ-P1 [3]	94.9	–	115	96.3	–	–
Hs578T	–	98.1	–	–	109	95.7
MDA-MB-231 [1]	–	113	–	–	89.2	99.2
MDA-MB-436	–	113	–	–	93	96.4
MDA-MB-453	99.6	–	110	101	–	–
MDA-MB-468	–	93.7	–	–	111	112
MFM-223	–	95.5	–	–	92.8	97.8
SK-BR-3	–	98.8	–	–	112	113

Settings	drug sensitivity score
BT-474 [10]	0
HCC1143 [7]	0
HCC1937 [9]	0
HDQ-P1 [8]	0
MCF-10A	0
MDA-MB-231 [6]	0

CCCCCOC(=O)Nc1nc(=O)n([C@@H]2O[C@H](C)[C@@H](O)[C@H]2O)cc1F [Capecitabine]
Settings	normalised viability
BT-474 [5], 10 nM	124% and 104%
BT-474 [5], 1000 nM	120% and 108%
BT-474 [5], 10000 nM	124% and 105%
BT-549, 10 nM	91.7% and 86.6%
BT-549, 1000 nM	96% and 104%
CAL-51, 3 nM	113% and 108%
CAL-51, 30 nM	105% and 98.2%
CAL-51, 100 nM	103%
CAL-85-1, 3 nM	87.5% and 102%
CAL-85-1, 30 nM	88.5% and 90.9%
CAL-85-1, 100 nM	91.8% and 103%
CAL-120, 10 nM	82.6% and 98.9%
CAL-120, 1000 nM	83.9% and 100%
CAL-120, 10000 nM	91.1% and 96.5%
CAL-148, 3 nM	91.9% and 96%
CAL-148, 30 nM	89.1% and 88.1%
CAL-148, 100 nM	92.8% and 107%
DU-4475, 3 nM	91.8% and 93.5%
DU-4475, 30 nM	83.6% and 88.7%
DU-4475, 100 nM	90.9% and 114%
HCC1143 [2], 10 nM	77.9% and 97.9%
HCC1143 [2], 1000 nM	89.9% and 103%
HCC1143 [2], 10000 nM	84.2% and 91.9%
HCC1599, 10 nM	99.6% and 100%
HCC1599, 10000 nM	96.4% and 111%
HCC1937 [4], 10 nM	80.9% and 86%
HCC1937 [4], 1000 nM	88% and 75.8%
HCC1937 [4], 10000 nM	87.6% and 85.8%
HDQ-P1 [3], 3 nM	94.8% and 95.5%
HDQ-P1 [3], 30 nM	91.5%
HDQ-P1 [3], 100 nM	102% and 94.6%
Hs578T, 10 nM	105% and 116%
Hs578T, 1000 nM	101% and 104%
Hs578T, 10000 nM	107% and 93.6%
MDA-MB-231 [1], 10 nM	94.2% and 74.2%
MDA-MB-231 [1], 1000 nM	108% and 87%
MDA-MB-231 [1], 10000 nM	110% and 97.4%
MDA-MB-436, 1000 nM	72.3% and 89%
MDA-MB-436, 10000 nM	83.6% and 89%
MDA-MB-453, 3 nM	110% and 101%
MDA-MB-453, 30 nM	95.9% and 104%
MDA-MB-453, 100 nM	97% and 94%
MDA-MB-468, 10 nM	106% and 131%
MDA-MB-468, 1000 nM	108% and 104%
MDA-MB-468, 10000 nM	104%
MFM-223, 10 nM	83.5% and 100%
MFM-223, 1000 nM	93.6% and 100%
MFM-223, 10000 nM	90.6% and 99.6%
SK-BR-3, 10 nM	107% and 86.8%
SK-BR-3, 1000 nM	108% and 93.6%
SK-BR-3, 10000 nM	78.4% and 85.5%

Settings	drug sensitivity score
BT-474 [10]	0
HCC1143 [7]	0
HCC1937 [9]	0
HDQ-P1 [8]	0
MCF-10A	0
MDA-MB-231 [6]	0
